Laboratory results: ChEMBL document CHEMBL1144205, “Screening of herbal constituents for aromatase inhibitory activity” (Bioorg Med Chem, 2008)

Tests used:
Aromatase [1] = target: T1, Aromatase (Homo sapiens, UniProt P11511); experiment: Inhibition of human aromatase expressed in CHO cells; format: cell-based
T1 sequence (P11511 whole entry): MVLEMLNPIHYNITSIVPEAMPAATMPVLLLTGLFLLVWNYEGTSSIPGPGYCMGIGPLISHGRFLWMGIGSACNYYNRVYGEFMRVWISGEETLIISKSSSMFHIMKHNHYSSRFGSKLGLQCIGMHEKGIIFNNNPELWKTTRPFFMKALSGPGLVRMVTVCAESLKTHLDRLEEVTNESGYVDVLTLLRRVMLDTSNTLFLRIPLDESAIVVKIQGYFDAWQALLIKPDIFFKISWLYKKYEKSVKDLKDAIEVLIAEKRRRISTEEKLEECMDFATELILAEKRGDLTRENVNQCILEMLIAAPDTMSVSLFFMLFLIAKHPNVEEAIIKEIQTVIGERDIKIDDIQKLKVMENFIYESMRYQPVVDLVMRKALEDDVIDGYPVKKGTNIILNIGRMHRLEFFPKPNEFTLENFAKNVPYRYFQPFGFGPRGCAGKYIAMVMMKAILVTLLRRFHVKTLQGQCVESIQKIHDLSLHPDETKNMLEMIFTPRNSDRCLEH

Aromatase [2] = target: T1, Aromatase; experiment: Inhibition of human aromatase by fluorometric assay

Structure (SMILES)	Ki (Aromatase [1]) [µM]	IC50 (Aromatase [2]) [µM]
O=c1c(O)c(-c2ccc(O)c(O)c2)oc2c(O)c(O)cc(O)c12 [GOSSYPETIN]		11
O=C1C[C@@H](c2ccc(O)cc2)Oc2cc(O)ccc21 [LIQUIRTIGENIN]		0.34
O=c1c(O)c(-c2cc(O)c(O)c(O)c2)oc2cc(O)cc(O)c12 [MYRICETIN]		10

More lines, main results first:

Ki (Aromatase [1]) [µM]	Structure (SMILES)	IC50 (Aromatase [2]) [µM]
100	O=c1c(-c2ccc(O)cc2)coc2cc(O)ccc12 [DAIDZEIN]	
100	O=c1c(-c2ccc(O)cc2)coc2cc(O)cc(O)c12 [GENISTEIN]	
100	O=c1c(O)c(-c2ccccc2)oc2cc(O)cc(O)c12 [GALANGIN]	
